What was measured:
[1] = NMR analysis of RAL reactions (Schiff base condensation and ring formation); format: physicochemical; conditions: Schiff base condensation with RAL, pure chloroform
[2] = system: light sensitivity of dark adapted rats; assay: ERG analysis of dark adaptation, dose ranging protocol; format: in vivo, rat; conditions: i.p.
Experimental: Dark adaptation is the recovery of visual sensitivity following exposure to light. Dark adaptation has multiple components including both fast (neuronal) processes and slow (photochemical) process. Regeneration of visual pigment is related to the slow photochemical process. Dark adaptation rates are measured for several reasons. Night blindness results from a failure to dark adapt (loss of visual light sensitivity). It is possible to find a safe dose for night vision by measuring drug effects on dark adapted visual light sensitivity.
An electroretinogram (ERG) is used measure dark adaptation under normal vs. drug conditions. ERG is the measurement of the electric field potential emitted by retinal neurons during their response to an experimentally defined light stimulus. More specifically, ERG measures retinal field potentials at the cornea after a flash of light (e.g., 50 ms). Field strengths are 10^2 to 10^3 microvolts, originating in retinal cells.
ERG is a non-invasive measurement which can be performed on either living subjects (human or animal) or a hemisected eye in solution that has been removed surgically from a living animal. […]
The ERG measurement is taken after a specific duration of post-bleach dark recovery (e.g., 30 min) determined previously by kinetic analysis (see FIGS. 6a and 6b). […]

Row | SMILES | tau (minutes) condense [1] [min] | effect on ERG light sensitivity of dark adapted rats ([2]; dose ranging, FIG. 7) | duration of the effect on vision ([2]; rat ERG)
1 | CC(C)(O)c1nc2ccc(Cl)cc2cc1N [Compound 9] | 320 |  | 
2 | CCOC(=O)c1cccc(N)c1 [Compound 6, tricaine methane sulfonate] |  | lowers light sensitivity of dark adapted rats in a dose dependent manner | decreases after 3 hours
